Measured values published in ChEMBL document CHEMBL1201862, “PubChem BioAssay data set” (2004).
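96-well plates; 48 h exposure; 5 concentrations. Endpoints by linear interpolation between flanking doses. Not reached: highest tested concentration assigned. GI50 marks 50% less growth.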 Activity calls are given as the source filed them. No stated cut-off is given here; in the data, active = GI50 up to about 1.1 µM and inactive = higher.

Assays:
Assay in all cases: growth of human tumour cells (NCI), 48 h
786-0 = system: 786-0
A549 = system: A549
ACHN = system: ACHN
COLO 205 = system: COLO 205
DU-145 = system: DU-145
EKVX = system: EKVX
HCT-15 = system: HCT-15
HT-29 = system: HT-29
KM12 = system: KM12
MCF7 = system: MCF7
MDA-N = system: MDA-N
Malme-3M = system: Malme-3M
NCI-H226 = system: NCI-H226
NCI-H23 = system: NCI-H23
NCI-H460 = system: NCI-H460
NCI/ADR-RES = system: NCI/ADR-RES
SF-268 = system: SF-268
SF-539 = system: SF-539
SK-MEL-5 = system: SK-MEL-5
T47D = system: T47D

Row | Structure (SMILES) | GI50 (786-0) | GI50 (A549) | GI50 (ACHN) | GI50 (COLO 205) | GI50 (DU-145) | GI50 (EKVX) | GI50 (HCT-15) | GI50 (HT-29) | GI50 (KM12) | GI50 (MCF7) | GI50 (MDA-N) | GI50 (Malme-3M) | GI50 (NCI-H226) | GI50 (NCI-H23) | GI50 (NCI-H460) | GI50 (NCI/ADR-RES) | GI50 (SF-268) | GI50 (SF-539) | GI50 (SK-MEL-5) | GI50 (T47D)
1 | COc1ccc(C(SCC(N)C(=O)O)(c2ccc(OC)cc2)c2ccc(OC)cc2)cc1 (stereo not drawn) | 13.4 µM (inactive) | 17.1 µM (inactive) | 12 µM (inactive) | 12.4 µM (inactive) | > 10 µM (inactive) | 13.7 µM (inactive) | 11.6 µM | 10.6 µM (inactive) | 6.32 µM (inactive) | 8.63 µM (inactive) | 3.5 µM (inactive) | 10.8 µM (inactive) | 13.2 µM (inactive) | 12.4 µM (inactive) | 11.3 µM (inactive) | 10.6 µM (inactive) | 13.4 µM (inactive) | 12.9 µM (inactive) | > 10 µM (inactive) | 12.2 µM (inactive)
2 | C[n+]1cccc2ccc3cccnc3c21 | 63.5 µM (inactive) | 5.64 µM (inactive) | 20.9 µM (inactive) | 17.7 µM (inactive) | 49.9 µM (inactive) | 6.84 µM (inactive) | 61.8 µM | 28.2 µM (inactive) | 9.08 µM (inactive) | 38.5 µM (inactive) | 67.5 µM (inactive) | 16.1 µM (inactive) | 20.6 µM (inactive) | 18.2 µM (inactive) | 23.2 µM (inactive) | > 100 µM (inactive) | 17.6 µM (inactive) | 48 µM (inactive) | 16.2 µM (inactive) | 21 µM (inactive)
3 | COc1ccc2c(c1)/C(=C\c1c(Cl)n(-c3ccccc3)c3ccccc13)C(=O)N2 | 8.45 µM (inactive) | 4.34 µM (inactive) | 9.18 µM (inactive) | 3.61 µM (inactive) | 5.89 µM (inactive) | 5.86 µM (inactive) | 2.36 µM | 3.48 µM (inactive) | 3.18 µM (inactive) | 3.45 µM (inactive) | 1.74 µM (inactive) | 2.83 µM (inactive) | 2.28 µM (inactive) | 6.01 µM (inactive) | 5.07 µM (inactive) | 2.49 µM (inactive) | 2.85 µM (inactive) | 2.98 µM (inactive) | 4.34 µM (inactive) | 5.94 µM (inactive)
4 | C[Si](C)(C)OC1(C#N)c2ccccc2CCCC12CCCC2 (stereo not drawn) | 54.7 µM (inactive) | 34.9 µM (inactive) | 30.1 µM (inactive) | 37.1 µM (inactive) | 61.1 µM (inactive) | 31.3 µM (inactive) | 39 µM | 27.8 µM (inactive) | 42.8 µM (inactive) | 30.1 µM (inactive) | 46 µM (inactive) | 39.4 µM (inactive) | > 100 µM (inactive) | 45.7 µM (inactive) | 37.6 µM (inactive) | 89.5 µM (inactive) | 57.4 µM (inactive) | 53.5 µM (inactive) | 24.1 µM (inactive) | 24.7 µM (inactive)
5 | Cn1c(=O)[nH]n(-c2ccc3ccccc3c2)c1=O | > 100 µM (inactive) | > 100 µM (inactive) | > 100 µM (inactive) | > 100 µM (inactive) | > 100 µM (inactive) | > 100 µM (inactive) | > 100 µM | > 100 µM (inactive) | > 100 µM (inactive) | > 100 µM (inactive) | > 100 µM (inactive) | > 100 µM (inactive) | > 100 µM (inactive) | > 100 µM (inactive) | > 100 µM (inactive) | > 100 µM (inactive) | > 100 µM (inactive) | > 100 µM (inactive) | > 100 µM (inactive) | > 100 µM (inactive)
6 | CC(C)(C)C(=O)C(CC(=O)c1ccccc1)C(=O)C(C)(C)C | > 100 µM (inactive) | > 100 µM (inactive) | > 100 µM (inactive) | > 100 µM (inactive) | > 100 µM (inactive) | > 100 µM (inactive) | > 100 µM | > 100 µM (inactive) | > 100 µM (inactive) | > 100 µM (inactive) | > 100 µM (inactive) | > 100 µM (inactive) | > 100 µM (inactive) | > 100 µM (inactive) | > 100 µM (inactive) | > 100 µM (inactive) | 83.9 µM (inactive) | > 100 µM (inactive) | > 100 µM (inactive) | > 100 µM (inactive)
7 | CC(=O)OCC1OC(O[C@@H]2C[C@H]3C(C)(C)[C@H](OC(C)=O)CC[C@]3(C)[C@H]3CC[C@@]45C[C@H](O)C[C@H](C)[C@@H]4CC=C5[C@@]32C)C(O)C(O)C1O (stereo partly drawn) | 3.83 µM (inactive) | 4.59 µM (inactive) | 6.05 µM (inactive) | 1.82 µM (inactive) | 8.28 µM (inactive) | 7.69 µM (inactive) | 11.2 µM | 1.91 µM (inactive) | 2.38 µM (inactive) | 4.04 µM (inactive) | 3.61 µM (inactive) | 6.92 µM (inactive) | 4.37 µM (inactive) | 4.56 µM (inactive) | 3.26 µM (inactive) | 16 µM (inactive) | 4.01 µM (inactive) | 6.59 µM (inactive) | 3.24 µM (inactive) | 3.43 µM (inactive)
8 | CN(C)CCCn1nc(N)c2nc3cc(Cl)ccc3nc21 | 50.7 µM (inactive) | 37.1 µM (inactive) | 39.7 µM (inactive) | 33 µM (inactive) | 54.8 µM (inactive) | > 66.5 µM (inactive) | 48.9 µM | 27.9 µM (inactive) | 43.9 µM (inactive) | 33.3 µM (inactive) | 52.7 µM (inactive) | 41.1 µM (inactive) | 45.2 µM (inactive) | 81.8 µM (inactive) | 39.3 µM (inactive) | 71.8 µM (inactive) | 58.1 µM (inactive) | 38.2 µM (inactive) | 20 µM (inactive) | 92.3 µM (inactive)
9 | Oc1ccccc1/C=N/Nc1nc(N/N=C/c2ccccc2O)nc(N/N=C/c2ccccc2O)n1 | 40.2 µM (inactive) | > 100 µM (inactive) | 69.7 µM (inactive) | > 100 µM (inactive) | > 100 µM (inactive) | > 100 µM (inactive) | 13.3 µM | 69.7 µM (inactive) | > 100 µM (inactive) | 8.63 µM (inactive) | > 100 µM (inactive) | > 100 µM (inactive) | 58.7 µM (inactive) | > 100 µM (inactive) | 44.8 µM (inactive) | 24.5 µM (inactive) | > 100 µM (inactive) | > 100 µM (inactive) | > 100 µM (inactive) | 47.9 µM (inactive)
10 | c1ccc2cc(CNCCCCNCCCNCc3ccc4ccccc4c3)ccc2c1 | 0.423 µM (active) | 1.62 µM (inactive) | 1.42 µM (inactive) | 0.277 µM (active) | 1.27 µM (inactive) | 1.57 µM (inactive) | 0.824 µM | 0.229 µM (active) | 0.403 µM (active) | 0.548 µM (active) | 0.993 µM (active) | 1.71 µM (inactive) | 1.17 µM (inactive) | 1.8 µM (inactive) | 0.188 µM (active) | 1.68 µM (inactive) | 1.41 µM (inactive) | 1.69 µM (inactive) | 2.4 µM (inactive) | 2.77 µM (inactive)
11 | COc1cccc(NC(=O)CC(=O)n2nc(-c3ccccc3)c(/N=N/c3ccc(Cl)cc3)c2-c2ccccc2)c1 | 14.4 µM (inactive) | 26.1 µM (inactive) | 19.9 µM (inactive) | 23 µM (inactive) | 25.3 µM (inactive) | 24 µM (inactive) | 11.5 µM | 19.6 µM (inactive) | 31.7 µM (inactive) | 7.57 µM (inactive) | 38.8 µM (inactive) | 13.7 µM (inactive) | 20.3 µM (inactive) | 20 µM (inactive) | 10.5 µM (inactive) | 19.5 µM (inactive) | 11.6 µM (inactive) | 26.6 µM (inactive) | 16.8 µM (inactive) | 13.9 µM (inactive)
12 | COc1ccc(C2CCc3c(cnc4nc(N)nc(N)c34)C2)cc1 (stereo not drawn) | 3.7 µM (inactive) | 6.43 µM (inactive) | 8.28 µM (inactive) | > 100 µM (inactive) | 37.4 µM (inactive) | 73.6 µM (inactive) | 5.15 µM | 4.69 µM (inactive) | > 100 µM (inactive) | 15.8 µM (inactive) | 1.04 µM (active) | 18.9 µM (inactive) | > 100 µM (inactive) |  | 4.89 µM (inactive) | > 100 µM (inactive) | 12.9 µM (inactive) | 26.5 µM (inactive) | 11 µM (inactive) | 31 µM (inactive)
13 | CN1CCCC2C(c3ccccc3)C(C3=NCCCC3)C(c3ccccc3)CC21 (stereo not drawn) | 24.5 µM (inactive) | > 100 µM (inactive) | 72.3 µM (inactive) | 26.4 µM (inactive) | > 100 µM (inactive) | 71 µM (inactive) | 27.2 µM | 19.5 µM (inactive) | 53.2 µM (inactive) | 56.6 µM (inactive) | 20.2 µM (inactive) | 19.6 µM (inactive) | > 100 µM (inactive) | 64.7 µM (inactive) | 27.7 µM (inactive) | 53.8 µM (inactive) | 59.3 µM (inactive) | 16 µM (inactive) | 16.9 µM (inactive) | > 100 µM (inactive)
14 | CC(=O)N1c2ccccc2C2=NN=C(N(C)C)SC21 (stereo not drawn) | 2.48 µM (inactive) | 2.89 µM (inactive) | 2.54 µM (inactive) | 3.3 µM (inactive) | 1.58 µM (inactive) | 2.75 µM (inactive) | 0.838 µM | 4.86 µM (inactive) | 3.18 µM (inactive) | 4.06 µM (inactive) | 3.33 µM (inactive) | 3.37 µM (inactive) | 3.12 µM (inactive) | 5.19 µM (inactive) | 2.46 µM (inactive) | 2.75 µM (inactive) | 1.82 µM (inactive) | 3.48 µM (inactive) |  | 3.52 µM (inactive)
